What all share (format): functional, cell-based
For one assay, the system named is HEp-2. The experiment in a line: Cytotoxicity against Homo sapiens (human) Hep2 cells after 48 hr by SRB assay. Particulars: HEp-2, 48 h. A general note: In SRB staining, fixed cells bind dye roughly in proportion to their protein.
In a further assay the test system is IMR-32. The experiment in a line: Cytotoxicity against Homo sapiens (human) IMR32 cells after 48 hr by SRB assay. Particulars: IMR-32, 48 h.
A further assay concerns OVCAR. Briefly: Cytotoxicity against Homo sapiens (human) OVCAR cells after 48 hr by SRB assay.
A further assay deals with PC-3. Briefly: Cytotoxicity against Homo sapiens (human) PC3 cells after 48 hr by SRB assay. Particulars: PC-3, 48 h.

The results in this text go back to ChEMBL document CHEMBL3045315, “Effect of ring A and ring B substitution on the cytotoxic potential of pyrazole tethered chalcones” (Med Chem Res, 2012).

SMILES strings stand for the structures.

One may read the IC50 as the concentration that gives 50% inhibition.

For the compound `CC(=O)N1N=C(c2ccco2)CC1c1ccc(C)cc1` (centres undefined), the IC50 with HEp-2 was found to be 19.3 µM; with IMR-32 it was 29.1 µM; in the assay on OVCAR it was 11.2 µM; in the assay with PC-3, 21.2 µM.
With `CC(=O)N1N=C(c2ccco2)CC1c1ccc(Br)cc1` (centres undefined), the IC50 was 51.2 µM in the assay with HEp-2, 47.8 µM with IMR-32, 18.9 µM in the assay on OVCAR and 42.1 µM in the assay with PC-3.
`CC(=O)N1N=C(c2cccc3ccccc23)CC1c1ccccc1` (centres undefined): the IC50 in the assay on HEp-2 stood at 11.2 µM; with IMR-32, 7.76 µM; with OVCAR, 7.82 µM; in the assay on PC-3, 8.46 µM.
For `CC(=O)N1N=C(c2cccc3ccccc23)CC1c1cccc([N+](=O)[O-])c1` (centres undefined), in that order: 4.08 µM, 3.96 µM, 3.65 µM and 3.13 µM.
With `COc1ccc(C2CC(c3cccc4ccccc34)=NN2C(C)=O)cc1` (centres undefined), the IC50 with HEp-2 was 3.73 µM; in the assay with IMR-32 it was 4.99 µM; in the assay on OVCAR, 6.71 µM; in the assay with PC-3, 4.93 µM.
For `CC(=O)N1N=C(c2cccc3ccccc23)CC1c1cccc(Br)c1` (centres undefined), in that order: 9.88 µM, 11.9 µM, 12.3 µM and 12 µM.
As for `CC(=O)N1N=C(c2cccc3ccccc23)CC1c1ccccc1[N+](=O)[O-]` (centres undefined), the IC50 was determined as 3.96 µM in the assay on HEp-2, 3.98 µM in the assay with IMR-32, 4.32 µM with OVCAR and 3.54 µM in the assay with PC-3.
The corresponding values for `COc1ccc(OC)c(C2CC(c3cccc4ccccc34)=NN2C(C)=O)c1` (centres undefined) are 1.31 µM, 1.58 µM, 2.65 µM and 1.98 µM.
The corresponding values for `COc1ccc(C2CC(c3cccc4ccccc34)=NN2C(C)=O)cc1OC` (centres undefined) are 1.03 µM, 1.68 µM, 2.69 µM and 2.01 µM.
The corresponding values for `COc1cc(C2CC(c3cccc4ccccc34)=NN2C(C)=O)cc(OC)c1OC` (centres undefined) are 1.01 µM, 1.54 µM, 1.77 µM and 1.09 µM.
In the case of `COc1cc(C2CC(c3cccc4ccccc34)=NN2C(C)=O)ccc1O` (centres undefined), the IC50 worked out at 1.13 µM in the assay with HEp-2, 1.78 µM with IMR-32, 2.73 µM with OVCAR and 2.13 µM with PC-3.
The corresponding values for `CC(=O)N1N=C(c2cccc3ccccc23)CC1c1cccc(Cl)c1Cl` (centres undefined) are 16.8 µM, 22.1 µM, 19.1 µM and 20.1 µM.
For `CC(=O)N1N=C(c2cccc3ccccc23)CC1c1ccc2c(c1)OCO2` (centres undefined), in that order: 1.07 µM, 1.91 µM, 3.76 µM and 2.09 µM.
For `CC(=O)N1N=C(c2cccc3ccccc23)CC1c1ccc2ccccc2c1` (centres undefined), in that order: 0.19 µM, 0.27 µM, 0.25 µM and 0.21 µM.
As to `CC(=O)N1N=C(c2ccco2)CC1c1ccccc1` (centres undefined), the 50% inhibitory concentration (IC50) with HEp-2 is 32.1 µM; in the assay on IMR-32, 29.1 µM; with OVCAR, 31.3 µM; in the assay on PC-3, 21.3 µM.
With `CC(=O)N1N=C(c2ccco2)CC1c1ccccc1[N+](=O)[O-]` (centres undefined), the concentration for half-maximal inhibition (IC50) stood at 47.9 µM in the assay with HEp-2, 27.9 µM in the assay on IMR-32, 28.3 µM in the assay with OVCAR and 19 µM with PC-3.
`CC(=O)N1N=C(c2ccco2)CC1c1cccc([N+](=O)[O-])c1` (centres undefined): the IC50 with HEp-2 was 30 µM; with IMR-32, 28.9 µM; with OVCAR, 23.4 µM; in the assay on PC-3 it was 20 µM.
For `CC(=O)N1N=C(c2ccco2)CC1c1cccc(O)c1` (centres undefined), the IC50 in the assay on HEp-2 was 10 µM; in the assay on IMR-32, 11.8 µM; with OVCAR, 13.2 µM; in the assay on PC-3, 16.5 µM.
The corresponding values for `CC(=O)N1N=C(c2ccco2)CC1c1ccc([N+](=O)[O-])cc1` (centres undefined) are 21.8 µM, 35.8 µM, 23 µM and 21.3 µM.
The corresponding values for `CC(=O)N1N=C(c2ccco2)CC1c1ccc(Cl)cc1` (centres undefined) are 57.4 µM, 38.9 µM, 31.3 µM and 39 µM.
The corresponding values for `COc1ccc(C2CC(c3ccco3)=NN2C(C)=O)cc1` (centres undefined) are 15.6 µM, 14.5 µM, 14.3 µM and 15.5 µM.
As to `CC(=O)N1N=C(c2ccco2)CC1c1ccc(N(C)C)cc1` (centres undefined), the IC50 in the assay with HEp-2 stood at 16 µM; with IMR-32, 16.1 µM; in the assay on OVCAR it was 14.6 µM; in the assay on PC-3, 16.7 µM.
Take `COc1ccc(OC)c(C2CC(c3ccco3)=NN2C(C)=O)c1` (centres undefined): the IC50 in the assay on HEp-2 turned out to be 13.3 µM; in the assay with IMR-32 it was 11.8 µM; in the assay on OVCAR it was 11 µM; in the assay on PC-3, 11.2 µM.
As for `COc1cc(C2CC(c3ccco3)=NN2C(C)=O)cc(OC)c1OC` (centres undefined), the half-maximal inhibitory concentration (IC50) in the assay on HEp-2 came to 21.3 µM; in the assay on IMR-32, 9.87 µM; with OVCAR it was 10.9 µM; in the assay with PC-3, 9.65 µM.
Turning to `COc1ccc(C2CC(c3ccco3)=NN2C(C)=O)cc1OC` (centres undefined), the IC50 is 9.99 µM in the assay on HEp-2, 11.2 µM in the assay on IMR-32, 31.2 µM with OVCAR and 12.3 µM with PC-3.
For `COc1cc(OC)c(C2CC(c3ccco3)=NN2C(C)=O)cc1OC` (centres undefined), in that order: 6.69 µM, 7.76 µM, 6.76 µM and 8.98 µM.
As for `COc1cc(C2CC(c3ccco3)=NN2C(C)=O)ccc1O` (centres undefined), the IC50 in the assay on HEp-2 was 10.1 µM; with IMR-32, 23.3 µM; in the assay with OVCAR, 11.3 µM; with PC-3, 12.9 µM.
The corresponding values for `CC(=O)N1N=C(c2ccco2)CC1c1cccc(Cl)c1Cl` (centres undefined) are 43.2 µM, 62.2 µM, 81.2 µM and 61.2 µM.
For `CC(=O)N1N=C(c2ccco2)CC1c1ccc2c(c1)OCO2` (centres undefined), the IC50 is 20 µM in the assay on HEp-2, 12.3 µM in the assay with IMR-32, 12.3 µM in the assay with OVCAR and 16.7 µM with PC-3.
As to `COc1ccc(C2CC(c3ccc4ccccc4c3)=NN2C(C)=O)cc1` (centres undefined), the half-maximal inhibitory concentration (IC50) in the assay with HEp-2 was found to be 3.23 µM; in the assay on IMR-32, 4.12 µM; in the assay with OVCAR, 5.79 µM; in the assay on PC-3 it was 4.53 µM.
The corresponding values for `CC(=O)N1N=C(c2ccc3ccccc3c2)CC1c1ccc2ccccc2c1` (centres undefined) are 0.17 µM, 0.19 µM, 0.23 µM and 0.2 µM.
The corresponding values for `CC(=O)N1N=C(c2cccc3ccccc23)CC1c1ccco1` (centres undefined) are 17 µM, 8 µM, 13 µM and 18 µM.
The corresponding values for `CC(=O)N1N=C(c2cccc3ccccc23)CC1/C=C/c1ccccc1` (centres undefined) are 21.1 µM, 26.7 µM, 24 µM and 21.1 µM.
Turning to `CC(=O)N1N=C(c2ccc3ccccc3c2)CC1c1ccccc1` (centres undefined), the IC50 in the assay on HEp-2 amounted to 8.4 µM; in the assay on IMR-32, 10 µM; in the assay with OVCAR, 21.5 µM; in the assay on PC-3, 7.4 µM.
With `CC(=O)N1N=C(c2ccc3ccccc3c2)CC1c1cccc([N+](=O)[O-])c1` (centres undefined), the IC50 in the assay with HEp-2 was determined as 3.87 µM; with IMR-32, 3.28 µM; with OVCAR it was 3.39 µM; in the assay with PC-3, 2.98 µM.
For the compound `CC(=O)N1CC(c2ccc3c(c2)OCO3)C(c2ccc3ccccc3c2)=N1` (centres undefined), the IC50 turned out to be 1.01 µM in the assay with HEp-2, 1.56 µM with IMR-32, 3.45 µM with OVCAR and 1.97 µM in the assay with PC-3.
In the case of `CC(=O)N1N=C(c2ccc3ccccc3c2)CC1c1ccccc1[N+](=O)[O-]` (centres undefined), the IC50 in the assay with HEp-2 is 3.63 µM; in the assay on IMR-32 it was 3.36 µM; in the assay on OVCAR it was 3.48 µM; in the assay on PC-3 it was 3.01 µM.
The corresponding values for `CC(=O)N1N=C(c2ccc3ccccc3c2)CC1c1cccc(Cl)c1Cl` (centres undefined) are 12.5 µM, 16.9 µM, 15.1 µM and 17.9 µM.
For `COc1cc(C2CC(c3ccc4ccccc4c3)=NN2C(C)=O)cc(OC)c1OC` (centres undefined), in that order: 0.53 µM, 0.67 µM, 0.64 µM and 0.57 µM.
The corresponding values for `COc1ccc(C2CC(c3ccc4ccccc4c3)=NN2C(C)=O)c(OC)c1OC` (centres undefined) are 0.59 µM, 0.78 µM, 0.58 µM and 0.61 µM.
Regarding `COc1ccc(OC)c(C2CC(c3ccc4ccccc4c3)=NN2C(C)=O)c1` (centres undefined), the half-inhibitory concentration (IC50) came to 1.09 µM in the assay with HEp-2, 1.32 µM with IMR-32, 2.33 µM in the assay on OVCAR and 1.66 µM in the assay on PC-3.
The corresponding values for `COc1ccc(C2CC(c3ccc4ccccc4c3)=NN2C(C)=O)cc1OC` (centres undefined) are 1.01 µM, 1.59 µM, 2.45 µM and 1.98 µM.
As for `COc1ccc(C2CC(c3ccc4ccccc4c3)=NN2C(C)=O)cc1O` (centres undefined), the IC50 in the assay on HEp-2 came out at 1.02 µM; in the assay on IMR-32 it was 1.49 µM; with OVCAR, 2.16 µM; with PC-3, 2.04 µM.
For `CC(=O)N1N=C(c2ccc3ccccc3c2)CC1c1cccc(Br)c1` (centres undefined), in that order: 8.78 µM, 9.87 µM, 10.8 µM and 10.9 µM.
The corresponding values for `CC(=O)N1N=C(c2ccc3ccccc3c2)CC1c1ccco1` (centres undefined) are 19 µM, 11 µM, 18 µM and 23 µM.
The corresponding values for `COc1ccc(C2CC(c3cccc4ccccc34)=NN2C(C)=O)c(OC)c1OC` (centres undefined) are 1.29 µM, 1.79 µM, 1.98 µM and 1.22 µM.
